Bounds are passed on as bounds.

One experiment addresses T1, HsCDK5/p25 (Homo sapiens, UniProt Q00535).
T1 construct: made in house
The experiment can be described thus: protein kinase assay, [γ-33P] ATP. Type of experiment: biochemical. The method, then:
(§1) Then, we evaluated the intermediates salts 6a–f and fourteen final compounds 9a–n on four protein kinases: HsCDK5-p25 (cyclin-dependant kinase 5-p25), SsGSK-3α/β (glycogen synthase kinase-3α/β) SsCK1δ/ε (Caseine kinase 1) and HsHaspin as an essential mitotic kinase. All assays were run in the presence of 15 μM of ATP and appropriate substrates. IC50 values were determined from dose-response curves. Concerning the library of the fourteen (5Z) 3-(4-arylmethylamino)butyl-5-arylidene-2-thioxo-1,3-thiazolidine-4-ones 9a–n and also the six diamines salts 6a–f, the results are given in Table 3. […] It is interesting to note that these two compounds are respectively substituted with an hydroxyl function on para-position of the 5-arylidene moiety and also with a similar bulky group (1,3-benzodioxol-5-yl for 9j and 2,3-dihydro-benzo[1,4]dioxin-6-yl for 9n) on the arylmethylamino moiety grafted on the N-3 butyl chain.
(§2) Kinase activities for each enzyme were assayed in buffer A (25 mM Tris-HCl pH 7.5, 10 mM MgCl2, 1 mM EGTA, 1 mM DTT, 50 µg/mL Heparin, BSA 0.15 mg/mL) or B (60 mM β-glycerophosphate, 30 mM p-Nitrophenylphosphate, 25 mM MOPS, 5 mM EGTA, 15 mM MgCl2, 1 mM DTT, 0.1 mM Na vanadate), with their corresponding substrates, in the presence of 15 µM [γ-^33P] ATP (3000 Ci/mmol; 10 mCi/mL) in a final volume of 30 µL. After 30 min incubation at 30 °C, the reaction was stopped by harvesting, using a FilterMate harvester (Packard, Meriden, CT, USA), onto P81 phosphocellulose papers (GE Healthcare, Velizy-Villacoublay, France) which were washed in 1% phosphoric acid. Scintillation fluid was added and the radioactivity measured in a Packard counter. Blank values were subtracted and activities calculated as pmoles of phosphate incorporated during the 30 min incubation. The activities were expressed in a percentage of the maximal activity, i.e., in the absence of inhibitors. Controls were performed with appropriate dilutions of DMSO. CK1 and Haspin peptide substrates were obtained from Proteogenix (Oberhausbergen, France).
CDK5/p25 (human, recombinant) was prepared as previously described. […]

The test system of a further experiment is MDA-MB231 cells. The experiment can be described thus: in vitro inhibition of cell proliferation / survival assay. It is filed as cell-based. To be noted: Homo sapiens; for IC50: MDA-MB-231, 48 h, average of three assays, standard error ± 0.5 μM; for viability at 25 µM: MDA-MB-231, measured at 25 μM after 48 h, single dose, triplicate. The method, then: (§3) As an initial effort to investigate their in vitro bioactivity, the new synthesized 3-(4-arylmethylamino)butyl-2-thioxo-1,3-thiazolidine-4-one 9a–n and also their precursors 6a–f were evaluated for their in vitro inhibition of cell proliferation. For this study, we used a panel of seven representative tumoral cell lines, namely HuH7 D12 (differential hepato cellular carcinoma), Caco 2 (differentiating colorectal adenocarcinoma), MDA-MBD231 ([…]), HCT 116 (actively proliferating colorectal adenocarcinoma), PC3 (prostate carcinoma), NCI-H727 (lung carcinoma), HaCat keratinocyte and, diploid skin fibroblasts as normal cell lines for control.
(§4) Skin diploid fibroblastic cells were provided by BIOPREDIC International Company (Rennes, France). Caco2 (Ref ECACC: 86010202), Huh-7D12 (Ref ECACC: 01042712), MDA-MB-231 (Ref ECACC: 92020424), HCT-116 (Ref ECACC: 91091005), PC3 (Ref ECACC: 90112714), NCI-H727 (Ref ECACC: 94060303) cell lines were obtained from the ECACC collection and HaCaT (from Cell Lines Service, Eppelheim, Germany). Cells were grown according to ECACC recommendations. The toxicity test of the compounds on these cells was as follows: 2 × 10^3 cells for HCT-116 cells or 4 × 10^3 for the other cells were seeded in 96 multiwell plates in triplicate and left for 24 h for attachment, spreading and growing. Then, cells were exposed for 48 h to increasing concentrations of the compounds, ranging from 0.1 to 25 μM in a final volume of 120 μL of culture medium. Cells were fixed in cooled solution of 90% ethanol/5% acetic acid, nuclei were stained with Hoechst 3342 (Sigma) and counted using automated imaging analysis (Cellomics Arrayscan VTI/HCS Reader, Thermo/Scientific, Waltham, MA, USA). The IC50 were graphically determined.

The subject of experiment [1] is Caco 2 cells (differentiating colorectal adenocarcinoma). The experiment is described as above. Particulars: Homo sapiens; for IC50: 48 h, average of three assays, standard error ± 0.5 μM; for viability at 25 µM: measured at 25 μM after 48 h, single dose, triplicate. Type of experiment: cell-based. The method, then: as §3, §4
For experiment [2], the system named is Huh7 D12 cells (differential hepato cellular carcinoma). The experiment is described as above. It is filed as cell-based. To be noted: for IC50: Huh-7D12, 48 h, average of three assays, standard error ± 0.5 μM; for viability at 25 µM: Huh-7D12, measured at 25 μM after 48 h, single dose, triplicate. On the procedure: as §3, §4
The test system of experiment [3] is HCT 116 cells (actively proliferating colorectal adenocarcinoma). The experiment is described as above. Type of experiment: cell-based. To be noted: Homo sapiens; for IC50: 48 h, average of three assays, standard error ± 0.5 μM; for viability at 25 µM: measured at 25 μM after 48 h, single dose, triplicate. The method, then:
as §3, §4

The next experiment deals with HaCat keratinocyte. The description is as above. Type of experiment: cell-based. Particulars: for IC50: 48 h, average of three assays, standard error ± 0.5 μM; for viability at 25 µM: measured at 25 μM after 48 h, single dose, triplicate. The method, then: as §3, §4
Experiment [4] concerns NCI-H727 cells (lung carcinoma). Described as above. It is filed as cell-based. Particulars: Homo sapiens, NCI-H727; for IC50: 48 h, average of three assays, standard error ± 0.5 μM; for viability at 25 µM: measured at 25 μM after 48 h, single dose, triplicate, read-out: % of Survival. The method, then: as §3, §4
For experiment [5], the system named is PC3 cells (prostate carcinoma). The description is as above. It is filed as cell-based. To be noted: Homo sapiens; for IC50: PC-3, 48 h, average of three assays, standard error ± 0.5 μM; for viability at 25 µM: PC-3, measured at 25 μM after 48 h, single dose, triplicate. On the procedure:
as §3, §4

Another experiment deals with SsCK1δ/ε. The experiment can be described thus: protein kinase assay, [γ-33P] ATP. To be noted: 15 μM ATP; CKS peptide substrate; >10 = inhibitory but IC50 > 10 μM. Type of experiment: biochemical, porcine. The method, then: as §1, §2
Casein kinase 1 (CK1δ/ε) (porcine brain, native) was assayed with 0.67 µg of CKS peptide ([…]pSAYSITA).

The target of another experiment is SsGSK-3α/β. The experiment can be described thus: protein kinase assay, [γ-33P] ATP. Type of experiment: biochemical, porcine. To be noted: 15 μM ATP; GS-1 substrate; >10 = inhibitory but IC50 > 10 μM. The method, then:
as §1, §2
GSK-3α/β (porcine brain, native) was assayed, as described for CDK5/p25 but in Buffer A and using a GSK-3 specific substrate (GS-1: […]pEDEEE) (pS stands for phosphorylated serine). GS-1 was synthesized by Millegen (Labege, France).

The test system of experiment [6] is panel of seven representative tumoral cell lines. Description: in vitro inhibition of cell proliferation, whole panel. To be noted: all cell lines of the panel, without selectivity; read-out: IC50, moderate antitumor activities in all cell lines of the panel. Type of experiment: cell-based. On the procedure: as §3
as §4, with “The toxicity test of the compounds on these cells was as follows: 2 × 10^3 cells for HCT-116 cells or 4 × 10^3 for the other cells were seeded in 96 multiwell plates in triplicate and left for 24 h for attachment, spreading and growing. Then, cells were exposed for 48 h to increasing concentrations of the compounds, ranging from 0.1 to 25 μM in a final volume of 120 μL of culture medium.” left out

T1 sequence (Q00535 whole entry): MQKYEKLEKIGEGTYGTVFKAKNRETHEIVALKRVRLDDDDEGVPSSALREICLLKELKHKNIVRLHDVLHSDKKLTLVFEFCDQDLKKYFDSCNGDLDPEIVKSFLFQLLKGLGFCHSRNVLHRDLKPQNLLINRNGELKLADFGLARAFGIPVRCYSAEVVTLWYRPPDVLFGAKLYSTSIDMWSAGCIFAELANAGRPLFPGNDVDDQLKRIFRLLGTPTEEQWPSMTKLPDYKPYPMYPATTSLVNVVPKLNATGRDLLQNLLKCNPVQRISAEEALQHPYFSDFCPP
T1 sequence (Q15078 99-307 partner limits assumed): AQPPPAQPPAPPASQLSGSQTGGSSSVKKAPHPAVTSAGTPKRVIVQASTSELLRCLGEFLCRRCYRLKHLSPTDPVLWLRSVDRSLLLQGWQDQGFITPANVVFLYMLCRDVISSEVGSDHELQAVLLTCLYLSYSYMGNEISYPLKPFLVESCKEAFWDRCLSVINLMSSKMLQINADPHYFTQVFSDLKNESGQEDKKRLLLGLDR

For orientation: IC50 means the midpoint of a concentration-inhibition curve. Take `O=C1/C(=C/c2ccc3c(c2)OCO3)SC(=S)N1CCCCNCc1ccc2c(c1)OCO2` [Compound 9h, (5Z)3-[4-(1,3-Benzodioxol-5-ylmethylamino)butyl]-5-(1,3-benzodioxol-5-ylmethylene)-2-thioxo-1,3-thiazolidin-4-one]: the IC50 at HsCDK5/p25 was 1.1 µM; in the experiment on MDA-MB231 cells it was 10 µM; in experiment [1], 14 µM; in [2] it was 10 µM; in experiment [3], 13 µM; in the experiment on HaCat keratinocyte (Homo sapiens, HaCaT) it was 10 µM. Besides, the IC50 in [4] was greater than 25 µM; in experiment [5], 13 µM; against SsCK1δ/ε it was 6.6 µM; on SsGSK-3α/β it was greater than 10 µM; in [6], 10 to 17 µM. For the same compound, the viability at 25 µM stood at 49% in the experiment on MDA-MB231 cells; 42% in experiment [1]; 7% in experiment [2]; 65% in experiment [3]; 10% in the experiment on HaCat keratinocyte (Homo sapiens); 43% in experiment [4]. The viability at 25 µM in [5] was 51%.
Turning to `O=C1/C(=C/c2ccc3c(c2)OCCO3)SC(=S)N1CCCCNCc1ccc2c(c1)OCO2` [Compound 9i, (5Z)3-[4-(1,3-Benzodioxol-5-ylmethylamino)butyl]-5-(2,3-dihydro-1,4-benzodioxin-6-ylmethylene)-2-thioxo-1,3-thiazolidin-4-one], the IC50 against HsCDK5/p25 came out at 1.3 µM; with MDA-MB231 cells, 9 µM; in experiment [1] it was 13 µM; in [2], 9 µM; in experiment [3], 14 µM; with HaCat keratinocyte it was 8 µM. The IC50 in the experiment on HaCat keratinocyte (Homo sapiens, HaCaT) was less than 10 µM; in experiment [4] it was 11 µM; in [5], 14 µM; on SsCK1δ/ε, 5.4 µM; on SsGSK-3α/β, greater than 10 µM. The viability at 25 µM with MDA-MB231 cells came to 17%; in [1], 17%; in experiment [2], 5%; in experiment [3], 8%; with HaCat keratinocyte (Homo sapiens) it was 6%; in experiment [4] it was 9%. The same compound registered a viability at 25 µM in experiment [5] of 39%.
Consider `O=C1/C(=C/c2ccc(O)cc2)SC(=S)N1CCCCNCc1ccc2c(c1)OCO2` [Compound 9j, (5Z)3-[4-(1,3-Benzodioxol-5-ylmethylamino)butyl]-5-(4-hydroxy-benzylidene)-2-thioxo-1,3-thiazolidin-4-one], for which the IC50 against HsCDK5/p25 was greater than 10 µM; with MDA-MB231 cells, 19 µM; in experiment [1], 27 µM; in experiment [2], 11 µM; in experiment [3] it was 22 µM; with HaCat keratinocyte (Homo sapiens, HaCaT), 13 µM. In addition, the IC50 in [4] is 19 µM; in [5], 19 µM; at SsCK1δ/ε, 1.4 µM; against SsGSK-3α/β, greater than 10 µM. Besides, the viability at 25 µM in the experiment with MDA-MB231 cells is 42%; in experiment [1], 41%; in experiment [2], 22%; in [3] it was 40%; in the experiment with HaCat keratinocyte (Homo sapiens), 21%; in [4], 33%. The compound also yielded a viability at 25 µM in experiment [5] of 38%.
`COc1cc(/C=C2\SC(=S)N(CCCCNCc3ccc4c(c3)OCCO4)C2=O)ccc1O` [Compound 9n, (5Z)3-[4-(2,3-Dihydro-benzo[1,4]dioxin-6-ylmethylamino)butyl]-5-(4-hydroxy-3-methoxybenzylidene)-2-thioxo-1,3-thiazolidin-4-one]: the IC50 was determined as 15 µM in the experiment with MDA-MB231 cells; 16 µM in experiment [1]; 15 µM in experiment [2]; 21 µM in experiment [3]; 15 µM in the experiment with HaCat keratinocyte (Homo sapiens, HaCaT); 17 µM in experiment [4]. Also, the half-inhibitory concentration (IC50) in experiment [5] is 19 µM; against SsCK1δ/ε it was 2 µM; on SsGSK-3α/β it was greater than 10 µM. The viability at 25 µM with MDA-MB231 cells was 55%; in experiment [1] it was 28%; in experiment [2] it was 41%; in experiment [3] it was 52%; in the experiment on HaCat keratinocyte (Homo sapiens) it was 48%; in [4], 63%. In experiment [5], this compound had a viability at 25 µM of 61%.

These data come from article PMC6332318, “Synthetic Development of New 3-(4-Arylmethylamino)butyl-5-arylidene-rhodanines under Microwave Irradiation and Their Effects on Tumor Cell Lines and against Protein Kinases” (Molecules, 2015).
